Data taken from patent EP0217621A2, “Macromolecular tumor cell growth-inhibiting antibiotic” (SMITHKLINE BECKMAN CORPORATION, priority 1985, dated 1987).

What was measured:
ADJ-PC6 Plasmacytoma = assay: in vivo ADJ-PC6 Plasmacytoma tumor model; design: species or system BALB/c female mice
Experimental: Likewise, AAC-345, in the form of the crude broth of ATCC 53270 and the purified active component of ATCC 53270, was tested in an additional in vivo tumor model known as ADJ-PC6 Plasmacytoma according to the following assay [see Cleare et al., J. Biochimie, 60, 830-850 (1978)]: • Tumor cells are carried by serial sc passage in BALB/c female mice and then collected aseptically on ca. Day 21 and minced in Hank's balanced salt solution. The cells are then dispersed by homogenizer, and cell concentration is adjusted to 4×10^6 viable (trypan blue-excluding) cells per ml by hemocytometer counts. A total of 0.5 ml (2x10^6 cells) is implanted sc on the right flank of BALB/c female mice in groups of 8. Treatment is given ip on Days 1-10, and tumors are measured in perpendicular diameters with a vernier caliper approximately three (3) weeks after tumor implantation (Days 18-21). Generally, > 75% inhibition of tumor growth reflects significant antitumor effect.

P388 leukemia = assay: in vivo ip P388 leukemia mouse model; design: species or system B6D2F1 mice; conditions: positive control, 1 mg/kg/day
From the text: P388 lymphocytic leukemia is currently the most widely used animal tumor model for screening for antitumor agents and for detailed evaluation of active compounds. This tumor system is widely accepted as an antitumor agent screening tool because it is sensitive to virtually all of the clinically active antineoplastic agents; quantitative and reproducible: amenable for large-scale screening; and predictive for activity in other animal tumor models. […] Rpts. (Part III), 3, 1-103 (1972)]: • 10^6 P388 leukemia cells are inoculated ip in B6D2F1 mice. Twenty-four hours later, if the tumor inoculum proves to be free of bacterial contamination (as determined by 24 hours incubation in thioglycollate broth), animals are randomized into groups of 6 and housed in shoebox cages. The purified active component of ATCC 53270 was dissolved in 0.9 percent NaCl solution (normal saline) at an appropriate concentration so that the desired dose was delivered in a volume of 0.5 ml. The crude broth of ATCC 53270 was administered undiluted or diluted with normal saline. Such saline solutions were stored in amber bottles at 4°C. The saline solution of the purified active component of ATCC 53270, saline solution of the crude broth of ATCC 53270 or undiluted crude broth of ATCC 53270 are administered ip on Days 1 through 5 (i.e. treatment is initiated 24 hrs after tumor inoculation). […] Animals are weighed as a group on Days 1, 5 and 9 and average weight change (δ wt.) is used as a reflection of toxicity. Each experiment also includes an inoculum titration -- groups of 8 mice inoculated ip with 10^5 to 10^0 P388 leukemia cells. The titration is used to calculate cell kill achieved by treatment with drugs. Animals are monitored daily for mortality and experiments are terminated after 45 days. The endpoint is median survival time (MST) and increase in lifespan (ILS) which is the percentage of increase in MST relative to untreated controls. Untreated controls inoculated ip with 10^6 P388 leukemia cells generally survive for a median of 9 to 11 days. A drug is considered active if it produces > 25 percent ILS.

SMILES: N.N.[Cl][Pt][Cl] [Cisplatin]
- TGI (percent of tumor growth inhibition) (ADJ-PC6 Plasmacytoma; Experiment I, 3 mg/kg/day ip Days 1-10, Day 21): 100%
- Mean Tumor Volume (ADJ-PC6 Plasmacytoma; Experiment I, 3 mg/kg/day ip Days 1-10, measured Day 21): 0 ± 0 mm^3
- tumor growth inhibition (ADJ-PC6 Plasmacytoma; positive control, general statement in the method): complete tumor growth inhibition
- ILS (increase in lifespan) (P388 leukemia; Experiment I): 117%
- Median Survival Time (P388 leukemia; Experiment I): 19.5 days
- Weight Change Day 5 (P388 leukemia; Experiment I): -0.2 gm
- Weight Change Day 9 (P388 leukemia; Experiment I): +1.4 gm
- ILS (increase in lifespan) (P388 leukemia; Experiment II): 89%
- Median Survival Time (P388 leukemia; Experiment II): 17 days
- Weight Change Day 5 (P388 leukemia; Experiment II): -0.6 gm
- Weight Change Day 9 (P388 leukemia; Experiment II): +1.2 gm
